Test results reported in patent publication US12624057B2, “Bisphosphonate quinolone conjugates and uses thereof” (BIOVINC, LLC, priority 2016, dated 2026).
“Also recorded” adds a separate entry of the source. Read-outs that look alike come from different tables or passages of the source.

Tests used:
[1] = system: biofilms of P. aeruginosa strain ATCC-15442; experiment: Preformed biofilms on HA discs, P. aeruginosa; assay type: cell-based, Pseudomonas aeruginosa
Experimental: (§1) Antimicrobial susceptibility testing of BP-ciprofloxacin against preformed biofilms of S. aureus strain ATCC-6538 and P. aeruginosa strain ATCC-15442: Strains cultured on appropriate agar plates (Columbia agar plate for S. aureus; MacConkey agar plate for P. aeruginosa) were transferred to liquid microbiological media and incubated for 24 h/37° C. under aerobic conditions. After incubation, strains were diluted to the density of 1 MF. The microbial dilutions were introduced to wells of 24-well plates containing HA discs as a substrate, or simply to polystyrene wells where the bottom surface of the wells served as the substrate for biofilm development. Strains were incubated at 37° C. for 4 hrs. Next, the microbe-containing solutions were removed from the wells. The surfaces, HA discs and polystyrene plates, were gently rinsed to leave adhered cells and to remove planktonic or loosely-bound microbes. Surfaces prepared in this manner were immersed in fresh TSB medium containing 0.24-125 mg/L of BP-ciprofloxacin conjugate. After 24 hrs of incubation at 37° C. the surfaces were rinsed using physiological saline solution and transferred to 1 mL of 0.5% saponin (Sigma-Aldrich, St Louis, MO). The surfaces were vortex-mixed vigorously for 1 minute to detach cells. Subsequently, all microbial suspensions were diluted 10 to 10^9 times. Each dilution ([…]) was cultured on the appropriate stable medium (MacConkey, Columbia for P. aeruginosa and S. aureus, respectively) and incubated at 37-C for 24 hours. After this time, the microbial colonies were counted and the number of cells forming biofilm was assessed. Results were presented as the mean number of CFU per square millimeter surface±standard error of the mean. To estimate the exact surface area of HA discs, x-ray tomographic analysis was applied. For estimation of the area of test plate bottoms, the equation for circle area: πr2 was applied.
Antimicrobial susceptibility testing of 6 against preformed biofilms of S. aureus strain ATCC-6538 and P. aeruginosa strain ATCC-15442: Strains cultured on appropriate agar plates (Columbia agar plate for S. aureus; MacConkey agar plate for P. aeruginosa) were transferred to liquid microbiological media and incubated for 24 hrs/37° C. under aerobic conditions. After incubation, strains were diluted to the density of 1 MF. The microbial dilutions were introduced to wells of 24-well plates containing HA discs as a substrate, or simply to polystyrene wells where the bottom surface of the wells served as the substrate for biofilm development. Strains were incubated at 37° C. for 4 hrs. Next, the microbe-containing solutions were removed from the wells. The surfaces, HA discs and polystyrene plates, were gently rinsed to leave adhered cells and to remove planktonic or loosely-bound microbes. […] After 24 hrs of incubation at 37° C. the surfaces were rinsed using physiological saline solution and transferred to 1 mL of 0.5% saponin (Sigma-Aldrich, St Louis, MO). The surfaces were vortex-mixed vigorously for 1 minute to detach cells. Subsequently, all microbial suspensions were diluted 10-1 to 10-9 times. Each dilution ([…]) was cultured on the appropriate stable medium (MacConkey, Columbia for P. aeruginosa and S. aureus, respectively) and incubated at 37° C. for 24 hrs. After this time, the microbial colonies were counted and the number of cells forming biofilm was assessed. Results were presented as the mean number of CFU per square millimeter surface±standard error of the mean. […]

[2] = system: biofilms of S. aureus strain ATCC-6538; experiment: Preformed biofilms on HA discs, S. aureus; assay type: cell-based, Staphylococcus aureus; settings: for bactericidal activity / reduction of CFUs against established biofilm (in words): HA as substrate
Experimental: as §1
Antimicrobial susceptibility testing of 6 against preformed biofilms of S. aureus strain ATCC-6538 and P. aeruginosa strain ATCC-15442: Strains cultured on appropriate agar plates (Columbia agar plate for S. aureus; MacConkey agar plate for P. aeruginosa) were transferred to liquid microbiological media and incubated for 24 hrs/37° C. under aerobic conditions. After incubation, strains were diluted to the density of 1 MF. The microbial dilutions were introduced to wells of 24-well plates containing HA discs as a substrate, or simply to polystyrene wells where the bottom surface of the wells served as the substrate for biofilm development. Strains were incubated at 37° C. for 4 hrs. Next, the microbe-containing solutions were removed from the wells. The surfaces, HA discs and polystyrene plates, were gently rinsed to leave adhered cells and to remove planktonic or loosely-bound microbes. […] After 24 hrs of incubation at 37° C. the surfaces were rinsed using physiological saline solution and transferred to 1 mL of 0.5% saponin (Sigma-Aldrich, St Louis, MO). The surfaces were vortex-mixed vigorously for 1 minute to detach cells. Subsequently, all microbial suspensions were diluted 10-1 to 10-9 times. Each dilution ([…]) was cultured on the appropriate stable medium (MacConkey, Columbia for P. aeruginosa and S. aureus, respectively) and incubated at 37° C. for 24 hrs. After this time, the microbial colonies were counted and the number of cells forming biofilm was assessed. Results were presented as the mean number of CFU per square millimeter surface±standard error of the mean. To calculate the surface area of HA discs, x-ray tomographic analysis was applied. For estimation of the area of test plate bottoms, the equation for circle area: πr^2 was applied.

[3] = system: S. aureus ATCC6538 biofilms; experiment: Survival of S. aureus biofilm on pretreated, rinsed HA discs; assay type: cell-based, Staphylococcus aureus; settings: for times more active than ciprofloxacin alone in achieving complete bactericidal action: allowing for molecular mass; for ability to prevent biofilm formation on pretreated HA (in words): pretreated HA discs; for concentration that inhibited all biofilm growth: pretreated, rinsed HA discs
Experimental: HA discs incubated in DMSO or phosphate buffer served as control samples. Next, discs were rinsed 3 times with sterile water. After rinsing, 2 mL of 0.5 MF of. S. aureus ATCC6538 were introduced to wells containing HA discs as a substrate for biofilm development and biofilms were formed as before.

[4] = HA discs as substrate (Example 1)
[5] = HA discs as substrate (Example 5)
[6] = 24 hrs of growth (Examples 5, 6)

Compound | concentration at which bactericidal ([1]; acidic and basic conditions (Example 1)) | concentration at which bactericidal ([1]; acidic and physiological conditions (Example 5)) | activity against P. aeruginosa biofilm (in words) ([1]; listed as conjugate) | concentration at which most effective ([1]; physiological pH, also effective at acidic pH) | bactericidal activity / reduction of CFUs against established biofilm (in words) [2] | bactericidal activity / reduction of CFUs against established biofilm (in words) ([2]; listed as BP-ciprofloxacin) | bactericidal activity / reduction of CFUs against established biofilm (in words) ([2]; listed as conjugate) | MBIC50 [2, 4] | MBIC90 [2, 4] | MBIC50 [2, 5] | MBIC90 [2, 5] | times more active than ciprofloxacin alone in achieving complete bactericidal action [3] | times more active than ciprofloxacin alone in achieving complete bactericidal action ([3]; listed as BP-ciprofloxacin) | ability to prevent biofilm formation on pretreated HA (in words) [3] | ability to prevent biofilm formation on pretreated HA (in words) ([3]; listed as BCC) | concentration that inhibited all biofilm growth ([3]; 24 hrs of growth (Example 1)) | concentration that inhibited all biofilm growth [3, 6] | activity against P. aeruginosa biofilm (in words) [1]
O=C(O)c1cn(C2CC2)c2cc(N3CCN(C(=O)Oc4ccc(CC(P(=O)(O)O)P(=O)(O)O)cc4)CC3)c(F)cc2c1=O [Compound 6, 1-cyclopropyl-7-(4-((4-(2,2-diphosphonoethyl)phenoxy)carbonyl)piperazin-1-yl)-6-fluoro-4-oxo-1,4-dihydroquinoline-3-carboxylic acid] | 50 µg/mL | 50 µg/mL | improved bactericidal activity in basic conditions; also recorded: improved bactericidal activity in physiological conditions | 8 µg/mL | statistically significant (p<0.05, Kruskal-Wallis test) bactericidal activity | statistically significant bactericidal activity | statistically significant bactericidal activity and reduction of colony forming units | 8 µg/mL | 50 µg/mL | 16 µg/mL | 100 µg/mL | 20 | 20 | superior antimicrobial activity | inhibited | 10 µg/mL | 10 µg/mL | –
O=C(O)c1cn(C2CC2)c2cc(N3CCNCC3)c(F)cc2c1=O [ciprofloxacin, reference compound] | – | – | – | – | statistically significant bactericidal activity | – | – | – | 8 µg/mL | – | 8 µg/mL | – | – | – | – | 100 µg/mL | 100 µg/mL | no inhibitory or bactericidal activity; also recorded: inactive under either acidic or physiological conditions
